Reference: PMC7496286, “The Selectivity of Fosfosal for STAT5b over STAT5a is Mediated by Arg566 in the Linker Domain” (Chembiochem, 2020)
“And” between values parts separate entries of the source, which are not always exact repeats. Identical values can stand only once.

Columns and labels:
[1] = molecular target: T1, STAT5a SH2 domain (Homo sapiens, UniProt P42229); assay: FP-based competitive binding assay, wild-type STAT5a
T1 construct: His; made in house
T1 sequence (P42229 1-794): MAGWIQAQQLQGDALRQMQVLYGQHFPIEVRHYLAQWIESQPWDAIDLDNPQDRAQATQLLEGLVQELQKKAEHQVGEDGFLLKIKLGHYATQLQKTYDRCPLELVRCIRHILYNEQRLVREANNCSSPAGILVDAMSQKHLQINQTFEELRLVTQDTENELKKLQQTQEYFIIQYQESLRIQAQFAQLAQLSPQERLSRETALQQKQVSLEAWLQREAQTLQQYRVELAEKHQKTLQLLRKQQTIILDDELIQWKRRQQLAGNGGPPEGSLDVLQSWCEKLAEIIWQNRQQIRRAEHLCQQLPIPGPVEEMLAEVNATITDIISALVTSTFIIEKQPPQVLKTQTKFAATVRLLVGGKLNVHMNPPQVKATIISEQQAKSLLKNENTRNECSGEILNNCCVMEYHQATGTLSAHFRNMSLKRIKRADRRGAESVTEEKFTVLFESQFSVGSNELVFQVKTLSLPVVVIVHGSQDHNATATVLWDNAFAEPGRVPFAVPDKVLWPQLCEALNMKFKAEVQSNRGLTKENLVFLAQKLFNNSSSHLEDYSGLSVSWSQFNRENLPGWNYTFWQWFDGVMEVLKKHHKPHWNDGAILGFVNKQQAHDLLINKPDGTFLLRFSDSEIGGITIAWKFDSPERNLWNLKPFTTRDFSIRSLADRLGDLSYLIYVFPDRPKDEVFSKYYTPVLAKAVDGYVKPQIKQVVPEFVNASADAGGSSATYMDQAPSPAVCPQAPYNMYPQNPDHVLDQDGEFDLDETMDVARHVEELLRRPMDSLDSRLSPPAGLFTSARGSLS
Procedure: (§1) Fluorescence polarization assays
(§2) The ability of test compounds to displace 5-carboxyfluorescein-GY(PO3H2)LVLDKW (final concentration: 10 nM) from the SH2 domain of STAT5a/b proteins was analyzed. Proteins […]
(§3) was applied in dilution series comprising the following concentrations: 0.024 – 200 µM […]
(§4) and 0.146 – 600 µM (STAT5b Arg566Glu), respectively. The assays were performed in buffer containing 10 mM Tris, 50 mM NaCl, 1 mM DTT, 1 mM EDTA and 0.1% (v/v) NP-40. Fosfosal was dissolved in DMSO. STAT5a/b proteins and fosfosal were incubated at room temperature for 1 h before adding peptide. Samples were transferred to 384-well microtiter plates and fluorescence polarization was read after a further 1 h incubation time. All measurements were performed in triplicate (n=3), except for STAT5b (n=6) and STAT5a Trp566Arg (n=4). Percent binding was calculated based on a logarithmic curve fit using OriginPro 8G software. IC50 values were converted to Ki values using the published equation.[4] […]
(§5) [4] Z. Nikolovska-Coleska, R. Wang, X. Fang, H. Pan, Y. Tomita, P. Li, P. P. Roller, K.
(§6) Krajewski, N. G. Saito, J. A. Stuckey, S. Wang, Anal. Biochem. 2004, 332, 261-273.

[2] = molecular target: T2, STAT5b SH2 domain (Homo sapiens, UniProt P51692); assay: Fluorescence polarization (FP)-based competitive binding assay, wild-type STAT5b
T2 construct: His; made in house
T2 sequence (P51692 1-787): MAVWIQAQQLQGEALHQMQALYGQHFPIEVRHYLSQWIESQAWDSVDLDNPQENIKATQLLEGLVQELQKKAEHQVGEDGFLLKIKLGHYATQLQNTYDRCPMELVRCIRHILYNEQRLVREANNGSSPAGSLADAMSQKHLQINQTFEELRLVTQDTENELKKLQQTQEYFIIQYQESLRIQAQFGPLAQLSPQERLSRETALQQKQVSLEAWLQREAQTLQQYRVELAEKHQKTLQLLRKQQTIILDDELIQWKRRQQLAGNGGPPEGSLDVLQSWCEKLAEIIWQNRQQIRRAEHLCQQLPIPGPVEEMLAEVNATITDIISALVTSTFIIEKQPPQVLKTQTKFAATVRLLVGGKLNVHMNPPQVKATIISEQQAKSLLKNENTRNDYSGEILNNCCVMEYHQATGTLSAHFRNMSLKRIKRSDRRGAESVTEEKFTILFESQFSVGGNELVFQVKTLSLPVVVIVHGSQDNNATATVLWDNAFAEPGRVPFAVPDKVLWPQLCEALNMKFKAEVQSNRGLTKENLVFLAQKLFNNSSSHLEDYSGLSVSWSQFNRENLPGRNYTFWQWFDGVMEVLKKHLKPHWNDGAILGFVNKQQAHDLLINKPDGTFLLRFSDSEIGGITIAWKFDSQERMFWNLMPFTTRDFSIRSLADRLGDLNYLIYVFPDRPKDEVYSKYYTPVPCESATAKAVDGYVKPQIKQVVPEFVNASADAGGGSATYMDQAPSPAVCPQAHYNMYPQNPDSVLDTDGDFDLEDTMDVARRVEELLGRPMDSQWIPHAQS
Procedure: as §1, §2, §3, §4
[2] N. Elumalai, A. Berg, K. Natarajan, A. Scharow, T. Berg, Angew. Chem. Int. Ed. 2015, […]
[3] M. Gräber, W. Janczyk, B. Sperl, N. Elumalai, C. Kozany, F. Hausch, T. A. Holak, T.
as §5, §6

IC50 ([1]; wild-type STAT5a) [µM] | Ki ([1]; wild-type STAT5a, Ki calculated from IC50 with published equation) [µM] | selectivity for STAT5b over STAT5a ([2]; Ki STAT5a versus Ki STAT5b) | IC50 ([2]; wild-type STAT5b) [µM] | Ki ([2]; wild-type STAT5b, Ki calculated from IC50 with published equation, n=6) [µM] | SMILES | Kd [1] [µM] | Kd ([2]; Kd, fluorescent tracer peptide binding to STAT5b)
 |  |  |  |  | CC(C)C[C@H](NC(=O)[C@H](Cc1ccc(OP(=O)(O)O)cc1)NC(=O)CNC(=O)c1ccc2c(c1)C(=O)OC21c2ccc(O)cc2Oc2cc(O)ccc21)C(=O)N[C@H](C(=O)N[C@@H](CC(C)C)C(=O)N[C@@H](CC(=O)O)C(=O)N[C@@H](CCCCN)C(=O)N[C@@H](Cc1c[nH]c2ccccc12)C(=O)O)C(C)C [5-carboxyfluorescein-GY(PO3H2)LVLDKW] | 0.147 | 0.082 µM and 0.095 µM
299 ± 17 | 148 ± 9 | fivefold | 59.5 ± 3.6 | 29.3 ± 1.8 | O=C(O)c1ccccc1OP(=O)(O)O [fosfosal, O‐phosphorylated salicylic acid] |  | 
